Measurements published in patent publication US20200062773A1, “4,4a,5,7-TETRAHYDRO-3H-FURO[3,4-b]PYRIDINYL COMPOUNDS” (Janssen Pharmaceutlca NV, priority 2016, published 2020).

Assays:
[1] = biological target: T1, BACE1 (Homo sapiens, UniProt P56817); test: BACE1 biochemical FRET based assay; details: Method 1: recombinant BACE1 1 μg/ml, 120 min at room temperature, pH 5.0
T1 construct: recombinant BACE1 protein in a final concentration of 1 μg/ml
Outline: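 Recombinant BACE1 (1 μg/ml) incubated 120 min at room temperature with 10 μm Mca/Dnp-quenched 13-mer APP Swedish-mutant peptide in 40 mM citrate pH 5.0, 0.04% PEG, 4% DMSO. Fluorescence (ex 320/em 405 nm) change between T0 and T120 gives activity; IC50 from least-squares curve fit of % control versus concentration.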

[2] = biological target: T2, BACE2 (Homo sapiens, UniProt Q9Y5Z0); test: BACE2 biochemical FRET based assay; details: recombinant BACE2, 450 minutes at room temperature, pH 5.0
T2 construct: recombinant BACE2 protein in a final concentration of 0.4 μg/ml
T2 sequence (Q9Y5Z0 63-518): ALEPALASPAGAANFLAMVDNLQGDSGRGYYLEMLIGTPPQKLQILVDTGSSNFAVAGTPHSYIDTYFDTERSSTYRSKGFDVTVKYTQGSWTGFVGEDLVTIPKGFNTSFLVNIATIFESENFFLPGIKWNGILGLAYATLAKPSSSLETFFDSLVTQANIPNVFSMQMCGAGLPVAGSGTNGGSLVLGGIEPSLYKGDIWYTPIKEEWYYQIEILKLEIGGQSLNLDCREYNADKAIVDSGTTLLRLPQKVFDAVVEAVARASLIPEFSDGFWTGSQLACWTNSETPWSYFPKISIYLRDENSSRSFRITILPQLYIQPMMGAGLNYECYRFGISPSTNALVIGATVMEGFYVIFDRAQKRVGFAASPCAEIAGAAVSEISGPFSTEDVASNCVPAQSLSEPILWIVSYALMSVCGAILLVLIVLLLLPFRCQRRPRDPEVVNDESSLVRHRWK
Outline: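 Recombinant BACE2 (0.4 μg/ml) incubated 450 min at room temperature with 10 μM Mca/Dnp Swedish-APP FRET substrate in 50 mM citrate pH 5.0, 0.05% PEG, no DMSO. Fluorescence (ex 320/em 405 nm) difference T450 minus T0; IC50 from least-squares fit of % control versus concentration.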

[3] = tested on: Abeta 1-42 produced and secreted into the medium of human neuroblastoma SKNBE2 cells; test: Cellular αLisa assay in SKNBE2 cells; format: cell-based; details: human neuroblastoma SKNBE2 cells expressing hAPP695, 18 hours incubation
Outline: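 Human neuroblastoma SKNBE2 cells expressing wild-type hAPP695 were exposed to compound for 18 hours. Secreted Abeta 1-42 in medium was quantified by sandwich αLisa (AbN/25 and cAb42/26 beads; 1 h, excitation 650 nm, emission 615 nm). IC50 came from a least-squares curve fit of % Controlmin against concentration.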

[4] = tested on: Abeta 1-42 in cerebrospinal fluid (CSF); test: Pharmacology in the beagle dog: beta-amyloid profile in CSF after a single dose; format: in vivo; details: beagle dog CSF, single dose 0.31 mg/kg
Protocol: Pharmacology in the Beagle Dog
(§1) Test compounds were tested to evaluate the effect on the beta-amyloid profile in cerebrospinal fluid (CSF) of dogs after a single dose, in combination with pharmacokinetic (PK) follow up and limited safety evaluation. For each of compound 4b, 3c, 7d, or 14, four beagle dogs (2 males, 2 females) were dosed with vehicle (1 ml/kg of an aqueous solution of 20% cyclodextrin) and 12, 8, 4 and 4 beagle dogs (2 males and 2 females per dosage group), were dosed with test compounds as follows:
(§2) CSF was taken in conscious animals directly from the lateral ventricle via a cannula which was screwed in the skull and covered with subcutaneous tissue and skin, before and at 4, 8, 25 and 49 hours after dosing. Eight hours after dosing the animals got access to their regular meal for 30 minutes. Blood was taken for PK follow up (0.5, 1, 2, 4, 8, 25 and 49 hours) and serum samples for biochemistry were taken before and at 8 and 25 h after dosing. The CSF samples were used for measurement of Abeta 1-42.

[5] = Limited safety evaluation in the beagle dog (observations, serum biochemistry); format: in vivo; details: one female dog, 0.31 mg/kg single dose
Protocol: as §1
as §2, with “Blood was taken for PK follow up (0.5, 1, 2, 4, 8, 25 and 49 hours) and serum samples for biochemistry were taken before and at 8 and 25 h after dosing.” left out

[6] = Phase 2 trial, development terminated June 2013; cited from earlier work

T1 sequence (P56817 46-501): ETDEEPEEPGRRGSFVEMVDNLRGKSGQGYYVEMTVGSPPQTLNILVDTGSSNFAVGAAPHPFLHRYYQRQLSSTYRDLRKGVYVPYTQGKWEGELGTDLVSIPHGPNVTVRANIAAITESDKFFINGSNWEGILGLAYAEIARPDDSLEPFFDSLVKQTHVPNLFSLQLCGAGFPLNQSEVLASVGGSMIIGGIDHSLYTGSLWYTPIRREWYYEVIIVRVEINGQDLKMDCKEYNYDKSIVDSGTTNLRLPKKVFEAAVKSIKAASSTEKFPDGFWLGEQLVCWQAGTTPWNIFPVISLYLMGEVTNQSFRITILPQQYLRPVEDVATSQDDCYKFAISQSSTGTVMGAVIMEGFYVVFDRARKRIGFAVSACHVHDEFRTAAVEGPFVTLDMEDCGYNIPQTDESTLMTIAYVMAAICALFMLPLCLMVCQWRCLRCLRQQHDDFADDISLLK

| Compound | Biochemical FRET based assay pIC50 [1] | Biochemical FRET based assay pIC50 [2] | Cellular αLisa assay in SKNBE2 cells Abeta 42 pIC50 [3] | % Mean decrease in Abeta 1-42 at 8 h post dosing compared to own baseline ([4]; 8 h) [%] | % Mean decrease in Abeta 1-42 at 25 h post dosing compared to own baseline ([4]; 25 h) | ALT liver enzyme increase [5] [fold] | Observations ([5]; 49 h post dosing) | liver abnormalities (patients affected) [6] |
| --- | --- | --- | --- | --- | --- | --- | --- | --- |
| C[C@@]1(C#N)C[C@@H]2[C@@H](C(F)(F)F)OC[C@]2(c2cc(NC(=O)c3cnc(OCF)cn3)ccc2F)N=C1N [7d] | 8.79 | 7.25 | 8.02 | 42 | NR (NR means % decrease < 20) | 6 | slight tremors and head shaking | – |
| NC1=N[C@@]2(c3cc(NC(=O)c4ccc(F)cn4)ccc3F)COC[C@H]2CS1 [LY2886721] | – | – | – | – | – | – | – | four out of 45 |
